Test results reported in patent US8865771B2, “Amides useful as inhibitors of voltage-gated sodium channels” (Vertex Pharmaceuticals Incorporated, priority 2007, dated 2014).
Read-outs that look alike come from different tables or passages of the source.

Assays:
[1] = molecular target: T1, NaV1.3 (Homo sapiens, UniProt Q9NY46); assay: NaV inhibition, VIPR optical membrane potential assay with electrical stimulation; format: cell-based; parameters: expressed in transfected cells; host or cells: HEK293; settings: activity against NaV 1.3 channel
Method: (§1) Compounds of the invention are useful as antagonists of voltage-gated sodium ion channels. Antagonist properties of test compounds were assessed as follows. Cells expressing the NaV of interest were placed into microtiter plates. After an incubation period, the cells were stained with fluorescent dyes sensitive to the transmembrane potential. The test compounds were added to the microtiter plate. The cells were stimulated with either a chemical or electrical means to evoke a NaV dependent membrane potential change from unblocked channels, which was detected and measured with trans-membrane potential-sensitive dyes. Antagonists were detected as a decreased membrane potential response to the stimulus. The optical membrane potential assay utilized voltage-sensitive FRET sensors described by Gonzalez and Tsien (See Gonzalez, J. E. and R. Y. Tsien (1995) “Voltage sensing by fluorescence resonance energy transfer in single cells” Biophys J 69(4): 1272-80, and Gonzalez, J. E. and R. Y. Tsien (1997) “Improved indicators of cell membrane potential that use fluorescence resonance energy transfer” Chem Biol 4(4): 269-77) in combination with instrumentation for measuring fluorescence changes such as the Voltage/Ion Probe Reader (VIPR®) (See Gonzalez, J. E., K. Oades, et al. (1999) “Cell-based assays and instrumentation for screening ion-channel targets” Drug Discov Today 4(9): 431-439).
(§2) C) VIPR® Optical Membrane Potential Assay Method with Electrical Stimulation
(§3) The following is an example of how NaV1.3 inhibition activity is measured using the optical membrane potential method#2. Other subtypes are performed in an analogous mode in a cell line expressing the NaV of interest.
HEK293 cells stably expressing NaV 1.3 are plated into 96-well microtiter plates. After an appropriate incubation period, the cells are stained with the voltage sensitive dyes CC2-DMPE/DiSBAC2(3) as follows.
10 mM CC2-DMPE is vortexed with an equivalent volume of 10% pluronic, followed by vortexing in required amount of HBSS containing 10 mM HEPES. Each cell plate will require 5 mL of 2×CC2-DMPE. 50 μL of 2×CC2-DMPE is to wells containing washed cells, resulting in a 10 μM final staining concentration. The cells are stained for 30 minutes in the dark at RT.
The 2×DiSBAC2(3) solution can be used to solvate compound plates. Note that compound plates are made at 2× drug concentration. Wash stained plate again, leaving residual volume of 50 μL. Add 50 uL/well of the 2×DiSBAC2(3) w/ABSC1. Stain for 30 minutes in the dark at RT.
(§4) The electrical stimulation instrument and methods of use are described in ION Channel Assay Methods PCT/US01/21652, herein incorporated by reference. The instrument comprises a microtiter plate handler, an optical system for exciting the coumarin dye while simultaneously recording the coumarin and oxonol emissions, a waveform generator, a current- or voltage-controlled amplifier, and a device for inserting electrodes in well. Under integrated computer control, this instrument passes user-programmed electrical stimulus protocols to cells within the wells of the microtiter plate.
(§5) Assay Protocol • 1. Insert or use electrodes into each well to be assayed. • 2. Use the current-controlled amplifier to deliver stimulation wave pulses for 3 s. Two seconds of pre-stimulus recording are performed to obtain the un-stimulated intensities. Five seconds of post-stimulation recording are performed to examine the relaxation to the resting state.
(§6) Data are analyzed and reported as normalized ratios of background-subtracted emission intensities measured in the 460 nm and 580 nm channels. Background intensities are then subtracted from each assay channel. Background intensities are obtained by measuring the emission intensities during the same time periods from identically treated assay wells in which there are no cells. The response as a function of time is then reported as the ratios obtained using the following formula: […]
Target sequence in this assay (Q9NY46 whole entry): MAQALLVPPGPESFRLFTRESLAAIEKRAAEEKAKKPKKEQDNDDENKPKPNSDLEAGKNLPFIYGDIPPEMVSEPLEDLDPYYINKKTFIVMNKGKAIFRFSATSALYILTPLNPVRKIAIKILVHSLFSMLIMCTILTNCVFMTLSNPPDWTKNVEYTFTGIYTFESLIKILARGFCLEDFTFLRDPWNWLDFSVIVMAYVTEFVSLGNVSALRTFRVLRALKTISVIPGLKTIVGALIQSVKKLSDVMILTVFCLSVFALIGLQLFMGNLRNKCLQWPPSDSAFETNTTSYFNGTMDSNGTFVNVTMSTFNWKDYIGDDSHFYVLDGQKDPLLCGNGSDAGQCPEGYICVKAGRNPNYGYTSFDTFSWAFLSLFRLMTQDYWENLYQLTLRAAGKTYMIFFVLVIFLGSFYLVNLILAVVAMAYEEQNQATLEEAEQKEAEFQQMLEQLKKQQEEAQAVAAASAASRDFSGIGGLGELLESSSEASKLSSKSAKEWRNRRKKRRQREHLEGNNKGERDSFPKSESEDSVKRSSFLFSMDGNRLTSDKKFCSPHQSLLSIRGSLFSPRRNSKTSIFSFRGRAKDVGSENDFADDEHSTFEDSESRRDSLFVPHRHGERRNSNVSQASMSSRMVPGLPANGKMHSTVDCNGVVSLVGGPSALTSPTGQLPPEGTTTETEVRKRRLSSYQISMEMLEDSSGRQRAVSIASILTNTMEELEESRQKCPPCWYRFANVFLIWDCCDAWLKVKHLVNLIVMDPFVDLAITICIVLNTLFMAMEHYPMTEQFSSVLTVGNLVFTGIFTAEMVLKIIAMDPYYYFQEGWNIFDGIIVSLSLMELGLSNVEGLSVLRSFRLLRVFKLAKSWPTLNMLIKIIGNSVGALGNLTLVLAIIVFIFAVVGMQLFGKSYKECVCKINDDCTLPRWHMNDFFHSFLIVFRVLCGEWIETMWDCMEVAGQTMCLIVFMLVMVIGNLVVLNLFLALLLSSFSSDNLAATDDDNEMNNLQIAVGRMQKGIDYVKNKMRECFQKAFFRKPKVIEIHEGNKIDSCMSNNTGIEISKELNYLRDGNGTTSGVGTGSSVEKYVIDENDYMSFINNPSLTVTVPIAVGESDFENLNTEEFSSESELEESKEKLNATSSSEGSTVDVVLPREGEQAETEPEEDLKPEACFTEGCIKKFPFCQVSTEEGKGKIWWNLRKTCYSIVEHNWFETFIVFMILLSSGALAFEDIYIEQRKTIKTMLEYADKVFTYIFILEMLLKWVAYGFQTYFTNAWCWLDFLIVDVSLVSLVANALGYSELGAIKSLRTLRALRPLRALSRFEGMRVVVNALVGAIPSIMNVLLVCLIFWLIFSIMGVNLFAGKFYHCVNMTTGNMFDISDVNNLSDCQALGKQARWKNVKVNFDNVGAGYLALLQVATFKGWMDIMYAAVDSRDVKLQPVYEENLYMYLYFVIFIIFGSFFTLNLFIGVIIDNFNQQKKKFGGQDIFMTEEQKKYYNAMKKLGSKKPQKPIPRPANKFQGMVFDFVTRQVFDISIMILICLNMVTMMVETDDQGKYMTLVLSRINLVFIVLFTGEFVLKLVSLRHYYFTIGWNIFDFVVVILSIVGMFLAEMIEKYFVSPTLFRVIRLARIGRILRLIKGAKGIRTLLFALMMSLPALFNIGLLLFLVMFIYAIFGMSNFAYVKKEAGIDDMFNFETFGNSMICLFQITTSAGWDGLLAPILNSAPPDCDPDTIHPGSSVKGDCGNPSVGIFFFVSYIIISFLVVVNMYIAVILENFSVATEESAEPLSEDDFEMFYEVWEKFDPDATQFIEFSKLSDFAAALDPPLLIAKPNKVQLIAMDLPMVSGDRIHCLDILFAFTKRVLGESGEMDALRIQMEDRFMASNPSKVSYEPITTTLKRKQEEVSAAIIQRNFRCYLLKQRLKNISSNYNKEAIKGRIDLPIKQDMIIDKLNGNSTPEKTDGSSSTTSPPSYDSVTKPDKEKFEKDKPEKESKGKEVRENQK

[2] = molecular target: NaV 1.7 channel (Homo sapiens, UniProt Q15858); assay: NaV inhibition, optical membrane potential assay (analogous mode); format: cell-based; settings: activity against NaV 1.7 channel
Method: as §1, §2, §3, §4, §5, §6
(§7) The data is further reduced by calculating the initial (Ri) and final (Rf) ratios. These are the average ratio values during part or all of the pre-stimulation period, and during sample points during the stimulation period. The response to the stimulus ρ=Rf/Ri is then calculated.
(§8) Control responses are obtained by performing assays in the presence of a compound with the desired properties (positive control) and in the absence of pharmacological agents (negative control). Responses to the negative (N) and positive (P) controls are calculated as above. The activity A of the assay well relative to positive and negative controls is defined as: […]

[3] = molecular target: T2, NaV1.8 (Homo sapiens, UniProt Q9Y5Y9); assay: as above; format: cell-based; settings: activity against NaV 1.8 channel
Method: as §1, §2, §3, §4, §5, §6, §7, §8

[4] = molecular target: NaV1.9 (Homo sapiens, UniProt Q9UI33); settings: read-out: TTX IC50; cited from earlier work
[5] = molecular target: T2, NaV1.8; settings: read-out: TTX IC50; cited from earlier work
[6] = molecular target: NaV1.6 (Homo sapiens, UniProt Q9UQD0); settings: read-out: TTX IC50; cited from earlier work
[7] = molecular target: T1, NaV1.3; settings: read-out: TTX IC50; cited from earlier work
Target sequence in this assay (Q9NY46 whole entry, looked up): as the sequence (Q9NY46 whole entry) above

Chain of NaV 1.7 channel (Q15858 whole entry): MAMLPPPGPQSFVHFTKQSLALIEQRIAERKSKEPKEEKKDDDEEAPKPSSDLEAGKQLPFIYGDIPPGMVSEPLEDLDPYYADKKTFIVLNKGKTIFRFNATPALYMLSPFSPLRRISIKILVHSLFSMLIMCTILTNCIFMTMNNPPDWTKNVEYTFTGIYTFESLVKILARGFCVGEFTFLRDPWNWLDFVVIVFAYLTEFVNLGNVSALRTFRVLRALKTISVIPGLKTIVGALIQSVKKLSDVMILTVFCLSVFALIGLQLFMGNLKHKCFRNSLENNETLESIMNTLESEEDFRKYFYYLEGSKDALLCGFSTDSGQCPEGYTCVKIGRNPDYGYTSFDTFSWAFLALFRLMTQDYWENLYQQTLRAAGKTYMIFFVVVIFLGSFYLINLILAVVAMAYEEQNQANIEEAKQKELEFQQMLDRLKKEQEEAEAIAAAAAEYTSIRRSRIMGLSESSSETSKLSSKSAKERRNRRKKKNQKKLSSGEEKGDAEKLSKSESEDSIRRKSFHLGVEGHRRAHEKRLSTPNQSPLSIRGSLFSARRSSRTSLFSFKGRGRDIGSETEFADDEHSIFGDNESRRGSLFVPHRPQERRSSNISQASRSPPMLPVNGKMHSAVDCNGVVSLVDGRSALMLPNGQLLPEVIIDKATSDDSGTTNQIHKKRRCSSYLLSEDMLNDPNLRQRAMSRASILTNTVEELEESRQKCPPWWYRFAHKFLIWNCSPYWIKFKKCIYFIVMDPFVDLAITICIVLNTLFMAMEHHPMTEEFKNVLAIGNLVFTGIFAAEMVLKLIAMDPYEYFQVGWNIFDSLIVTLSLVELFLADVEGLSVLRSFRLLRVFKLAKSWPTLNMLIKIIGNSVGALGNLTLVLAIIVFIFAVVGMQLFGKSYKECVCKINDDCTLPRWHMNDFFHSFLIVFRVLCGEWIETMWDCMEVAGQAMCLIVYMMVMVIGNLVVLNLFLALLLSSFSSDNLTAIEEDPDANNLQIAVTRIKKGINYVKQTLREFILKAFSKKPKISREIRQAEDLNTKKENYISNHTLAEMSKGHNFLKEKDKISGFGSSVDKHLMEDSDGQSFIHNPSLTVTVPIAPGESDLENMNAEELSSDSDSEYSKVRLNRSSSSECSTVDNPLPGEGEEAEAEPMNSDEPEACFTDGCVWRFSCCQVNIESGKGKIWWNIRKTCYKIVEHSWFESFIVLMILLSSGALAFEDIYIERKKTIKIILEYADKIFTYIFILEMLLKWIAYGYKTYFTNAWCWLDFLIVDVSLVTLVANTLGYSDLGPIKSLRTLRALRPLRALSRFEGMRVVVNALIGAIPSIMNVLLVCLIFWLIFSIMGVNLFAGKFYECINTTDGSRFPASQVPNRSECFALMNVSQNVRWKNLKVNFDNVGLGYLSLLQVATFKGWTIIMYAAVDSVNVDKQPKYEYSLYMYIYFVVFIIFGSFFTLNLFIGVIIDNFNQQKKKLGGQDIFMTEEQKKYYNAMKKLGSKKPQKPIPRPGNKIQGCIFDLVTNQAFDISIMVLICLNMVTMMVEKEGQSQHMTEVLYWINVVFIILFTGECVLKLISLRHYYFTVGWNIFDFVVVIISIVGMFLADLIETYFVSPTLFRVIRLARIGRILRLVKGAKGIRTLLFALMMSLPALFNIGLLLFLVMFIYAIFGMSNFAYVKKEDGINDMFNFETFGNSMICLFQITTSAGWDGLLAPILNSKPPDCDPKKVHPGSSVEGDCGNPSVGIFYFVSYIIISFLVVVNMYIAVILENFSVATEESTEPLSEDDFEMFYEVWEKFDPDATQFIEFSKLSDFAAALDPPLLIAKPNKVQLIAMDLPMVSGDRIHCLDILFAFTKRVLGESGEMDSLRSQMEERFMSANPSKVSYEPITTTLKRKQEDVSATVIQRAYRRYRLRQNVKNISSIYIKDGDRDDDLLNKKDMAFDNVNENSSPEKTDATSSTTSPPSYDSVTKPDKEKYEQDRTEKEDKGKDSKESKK

For Cc1ncccc1Oc1cc(C(C)(C)C)ccc1C(=O)Nc1cncc(S(N)(=O)=O)c1 [Compound 1], the IC50 [1] was over 20 µM, the IC50 [2] was over 20 µM and the IC50 [3] was under 2 µM.
CC(C)(C)c1ccc(C(=O)Nc2cncc(S(N)(=O)=O)c2)c(Oc2ccc(F)cc2Cl)c1 [Compound 2] gave an IC50 [1] of 2 to 10 µM, an IC50 [2] of 2 to 10 µM and an IC50 [3] of under 2 µM.
CC(C)(C)c1ccc(C(=O)Nc2cncc(S(N)(=O)=O)c2)c(Oc2ccc(C(F)(F)F)nc2)c1 [Compound 3] gave an IC50 [1] of 10 to 20 µM, an IC50 [2] of 2 to 10 µM and an IC50 [3] of under 2 µM.
With CC(C)(C)c1ccc(C(=O)Nc2cncc(S(N)(=O)=O)c2)c(Oc2cccc(C(F)(F)F)n2)c1 [Compound 4] the IC50 [1] was 10 to 20 µM, the IC50 [2] was over 20 µM and the IC50 [3] was under 2 µM.
Work on NS(=O)(=O)c1cncc(NC(=O)c2ccc(C(F)(F)F)cc2Oc2ccc(C(F)(F)F)nc2)c1 [Compound 5, N-(5-Sulfamoylpyridin-3-yl)-4-(trifluoromethyl)-2-(6-(trifluoromethyl)pyridin-3-yloxy)benzamide] yielded an IC50 [1] of over 20 µM, an IC50 [2] of over 20 µM and an IC50 [3] of 2 to 10 µM.
With CC(C)(C)c1ccc(C(=O)Nc2cncc(S(C)(=O)=O)c2)c(Oc2ccc(C(F)(F)F)nc2)c1 [Compound 6, 4-tert-Butyl-N-(5-(methylsulfonyl)pyridin-3-yl)-2-(6-(trifluoromethyl)pyridin-3-yloxy)benzamide] the IC50 [1] was 10 to 20 µM, the IC50 [2] was over 20 µM and the IC50 [3] was 2 to 10 µM.
Molecule CC(C)(C)c1ccc(C(=O)Nc2cncc(S(C)(=O)=O)c2)c(Oc2ccc(F)cc2Cl)c1 [Compound 7] has an IC50 [1] of 10 to 20 µM, an IC50 [2] of 10 to 20 µM and an IC50 [3] of under 2 µM.
Work on CS(=O)(=O)c1cncc(NC(=O)c2ccc(C(F)(F)F)cc2Oc2ccc(C(F)(F)F)nc2)c1 [Compound 8] yielded an IC50 [1] of over 20 µM, an IC50 [2] of over 20 µM and an IC50 [3] of 2 to 10 µM.
CC(C)(C)c1ccc(C(=O)Nc2cncc(S(C)(=O)=O)c2)c(Oc2cccc(C(F)(F)F)n2)c1 [Compound 9] showed an IC50 [1] of 10 to 20 µM, an IC50 [2] of 10 to 20 µM and an IC50 [3] of 2 to 10 µM.
For NC1=N[C@H](O)[C@H]2[C@H]3O[C@]4(O)O[C@@H]([C@@H](O)[C@@]2(N1)[C@@H]4O)[C@]3(O)CO [TTX, tetrodotoxin], the IC50 [4] is listed as 1 µM, the IC50 [5] is listed as over 50 µM and the IC50 [6] is listed as 0.006 µM. For the same molecule, the IC50 [7] was 0.015 µM.
